# Measurements published in article PMC8304610, “Discovery of Novel 2,4-Dianilinopyrimidine Derivatives Containing 4-(Morpholinomethyl)phenyl and N-Substituted Benzamides as Potential FAK Inhibitors and Anticancer Agents” (Molecules, 2021).
# What was measured:
# [1] = target: T1, FAK kinase (Homo sapiens, UniProt Q05397); test: ADP-Glo kinase enzymatic assay; format: biochemical; settings: mean ± SD of three independent experiments
# T1 construct: purchased Promega Corporation V9301
# Description: The ADP-Glo™ Kinase Assay Kit and FAK Kinase Enzyme (Catalog. V9301) were purchased from Promega Corporation (Madison, WI, USA). The experiments were performed according to the detailed and complete protocols of the manufacturer. Briefly, the concentration of FAK determined by optimization experiments was 0.1 μg/μL. Suitable concentration gradients from 1.6 to 1000 nM were set for all the tested compounds. A kinase reaction buffer, a substrate/ATP mixture, and a FAK solution were prepared right before use. The 5 μL kinase reaction consisted of 1 μL of compound solution, 2 μL of substrate/ATP mixture, and 2 μL of FAK solution. The control without enzyme was provided by 3 μL of kinase reaction buffer and 2 μL of substrate/ATP mixture. The negative control was prepared using 1 μL of kinase reaction buffer instead of a compound solution. The kinase reactions were added to a 384-well plate and incubated at room temperature for 60 min, then 5 μL of ADP-Glo™ Reagent was added to stop the kinase reaction and deplete the unconsumed ATP, and incubated at room temperature for 40 min. After adding 10 μL of Kinase Detection Reagent, the plate was incubated at room temperature for 30 min and then luminescence was recorded (integration time 0.5–1 s) on a TriStar® LB942 Multimode Microplate Reader (BERTHOLD TECHNOLOGIES GmbH & Co. KG., Bad Wildbad, Germany). Curve fitting and data presentations were performed using GraphPad Prism version 8.0.
# [2] = test system: normal human bronchial epithelial cells (HBE); test: CCK-8 cellular selectivity assay, HBE; format: cell-based; settings: for IC50: Homo sapiens, Epithelial cell, HBE normal cells, CCK-8, 72 h, mean ± SD of three experiments, read-out: Antiproliferative Activity IC50, HBE; for SI Values (selectivity index): IC50 for HBE cell line/IC50 for H1975 cell line
# Description: (§1) The H1975 human NSCLC cell line was obtained from ATCC. A431 human epithelial carcinoma and HBE human bronchial epithelial cell lines were kind gifts from Fuheng Biological Company Ltd. (Shanghai, China) and YuXi Biotech Company (Jiangsu, China), respectively. The cells were maintained in RPMI 1640 or DMEM (Gibco®, Thermo Fisher Scientific Inc., Waltham, MA, USA) containing 10% fetal bovine serum (FBS, Gibco®) and 1% penicillin-streptomycin (Beyotime Company, Shanghai, China) at 37 °C in a 5% CO2 incubator.
# (§2) A total of 3000 cells of H1975 or HBE and 5000 cells of A431 were seeded for each well into a 96-well plate and cultured in 10% FBS respective growth medium overnight. Various concentrations (0–20 μM) of each compound were then added in triplicate to the cells. After 72 h of incubation, 10 μL of CCK-8 solution (5.0 mg/mL, Biotool Company, Kirchberg, Switzerland) was added to each well and the cells continued to culture for 4 h. The optical density (OD) was determined at 450 nm with a microplate reader (Thermo Fisher Scientific, Waltham, MA, USA). IC50 values were calculated employing GraphPad Prism version 8.0.
# [3] = test system: A431 human epithelial carcinoma cells; test: CCK-8 cell viability assay, A431; format: cell-based; settings: A-431, CCK-8, 72 h, mean ± SD of three experiments, read-out: Antiproliferative Activity IC50, A431
# Description: as §1, §2
# [4] = test system: H1975 non-small cell lung cancer (NSCLC) cells; test: CCK-8 cell viability assay, H1975; format: cell-based; settings: Homo sapiens, NCI-H1975, CCK-8, 72 h, mean ± SD of three experiments, read-out: Antiproliferative Activity IC50, H1975
# Description: as §1, §2
# [5] = test system: H1975 cells; test: Scratch (cell migration) assay; format: cell-based, human; settings: H1975, 0.1, 0.5, and 1 μM, 24 h
# Description: H1975 cells were seeded in 6-well plates and incubated for 12 h. When cells were grown to 90–100% confluency in a monolayer, wounds were generated using a pipette tip. […] The images were captured to record the status of cells near the scratch lines at the beginning and after 12 and 24 h.
# T1 sequence (Q05397 393-698 limits assumed): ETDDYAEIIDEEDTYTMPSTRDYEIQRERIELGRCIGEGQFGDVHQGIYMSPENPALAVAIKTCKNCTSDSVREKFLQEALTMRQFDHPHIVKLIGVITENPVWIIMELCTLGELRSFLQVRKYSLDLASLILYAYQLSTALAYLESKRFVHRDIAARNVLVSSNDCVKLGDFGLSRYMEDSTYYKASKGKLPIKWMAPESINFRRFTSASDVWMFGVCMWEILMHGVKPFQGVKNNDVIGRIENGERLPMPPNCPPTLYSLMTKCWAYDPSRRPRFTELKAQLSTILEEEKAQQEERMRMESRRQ
SMILES,IC50 [1],IC50 [3],IC50 [4],melting point,IC50 [2],SI Values (selectivity index) [2],Cell migration (in words) [5]
"CC(O)CNC(=O)c1ccccc1Nc1nc(Nc2ccc(CN3CCOCC3)cc2)ncc1Cl (stereo not drawn) [Compound 8c, 2-((5-Chloro-2-((4-(morpholinomethyl)phenyl)amino)pyrimidin-4-yl)amino)-N-(2-hydroxypropyl)benzamide]",30 ± 7 nM,158 ± 27 nM,119 ± 47 nM,,4010 ± 231 nM,34,
"CN(CCO)C(=O)c1ccccc1Nc1nc(Nc2ccc(CN3CCOCC3)cc2)ncc1Cl [Compound 8d, 2-((5-Chloro-2-((4-(morpholinomethyl)phenyl)amino)pyrimidin-4-yl)amino)-N-(2-hydroxyethyl)-N-methylbenzamide]",40 ± 11 nM,161 ± 82 nM,293 ± 50 nM,,3820 ± 500 nM,13,
O=C(c1ccccc1Nc1nc(Nc2ccc(CN3CCOCC3)cc2)ncc1Cl)N1CCC(O)CC1 [Compound 8e],129 ± 37 nM,238 ± 98 nM,1410 ± 132 nM,,435 ± 45 nM,0.3,
"O=C(NCCCCCCO)c1ccccc1Nc1nc(Nc2ccc(CN3CCOCC3)cc2)ncc1Cl [Compound 8g, 2-((5-Chloro-2-((4-(morpholinomethyl)phenyl)amino)pyrimidin-4-yl)amino)-N-(6-hydroxyhexyl)benzamide]",198 ± 32 nM,507 ± 19 nM,287 ± 61 nM,,1640 ± 813 nM,6,
"O=C(NCC(O)CO)c1ccccc1Nc1nc(Nc2ccc(CN3CCOCC3)cc2)ncc1Cl (stereo not drawn) [Compound 8h, 2-((5-Chloro-2-((4-(morpholinomethyl)phenyl)amino)pyrimidin-4-yl)amino)-N-(2,3-dihydroxypropyl)benzamide]",72 ± 7 nM,47 ± 6 nM,219 ± 82 nM,,688 ± 121 nM,3,
O=C(c1ccccc1Nc1nc(Nc2ccc(CN3CCOCC3)cc2)ncc1Cl)N1CCC(CO)CC1 [Compound 8f],173 ± 23 nM,195 ± 97 nM,2220 ± 261 nM,,862 ± 125 nM,0.4,
"O=C(NCCCO)c1ccccc1Nc1nc(Nc2ccc(CN3CCOCC3)cc2)ncc1Cl [Compound 8b, 2-((5-Chloro-2-((4-(morpholinomethyl)phenyl)amino)pyrimidin-4-yl)amino)-N-(3-hydroxypropyl)benzamide]",61 ± 9 nM,207 ± 36 nM,75 ± 11 nM,,1150 ± 283 nM,15,
"CCC(C)C(CO)NC(=O)c1ccccc1Nc1nc(Nc2ccc(CN3CCOCC3)cc2)ncc1Cl (stereo not drawn) [Compound 8i, 2-((5-Chloro-2-((4-(morpholinomethyl)phenyl)amino)pyrimidin-4-yl)amino)-N-(1-hydroxy-3-methylpentan-2-yl)benzamide]",126 ± 21 nM,1240 ± 909 nM,815 ± 61 nM,,> 20000 nM,>24,
"C=CC(=O)Nc1cc(Nc2nccc(-c3cn(C)c4ccccc34)n2)c(OC)cc1N(C)CCN(C)C [Osimertinib, osimertinib, reference compound]",,988 ± 119 nM,116 ± 32 nM,,1210 ± 177 nM,10,

# The next lines start with results.
IC50 [1],IC50 [3],IC50 [4],melting point,SMILES,IC50 [2],SI Values (selectivity index) [2],Cell migration (in words) [5]
149 ± 33 nM,182 ± 32 nM,47 ± 9 nM,174 to 176 °C,"O=C(NCCOc1no[n+]([O-])c1S(=O)(=O)c1ccccc1)c1ccccc1Nc1nc(Nc2ccc(CN3CCOCC3)cc2)ncc1Cl [Compound 9a, 4-(2-(2-((5-Chloro-2-((4-(morpholinomethyl)phenyl)amino)pyrimidin-4-yl)amino)benzamido)ethoxy)-3-(phenylsulfonyl)-1,2,5-oxadiazole 2-oxide]",916 ± 92 nM,19,
> 1000 nM,617 ± 40 nM,592 ± 73 nM,120 to 122 °C,"O=C(NCCCCCCOc1no[n+]([O-])c1S(=O)(=O)c1ccccc1)c1ccccc1Nc1nc(Nc2ccc(CN3CCOCC3)cc2)ncc1Cl [Compound 9g, 4-((6-(2-((5-Chloro-2-((4-(morpholinomethyl)phenyl)amino)pyrimidin-4-yl)amino)benzamido)hexyl)oxy)-3-(phenylsulfonyl)-1,2,5-oxadiazole 2-oxide]",3010 ± 90 nM,5,
,392 ± 53 nM,141 ± 41 nM,,"CNC(=O)c1ccccc1Nc1nc(Nc2ccc(N3CCOCC3)cc2OC)ncc1Cl [TAE226, reference compound]",> 20000 nM,,reduced migration distances
300 ± 9 nM,1740 ± 305 nM,1570 ± 265 nM,109 to 111 °C,"O=C(c1ccccc1Nc1nc(Nc2ccc(CN3CCOCC3)cc2)ncc1Cl)N1CCC(COc2no[n+]([O-])c2S(=O)(=O)c2ccccc2)CC1 [Compound 9f, 4-((1-(2-((5-Chloro-2-((4-(morpholinomethyl)phenyl)amino)pyrimidin-4-yl)amino)benzoyl)piperidin-4-yl)methoxy)-3-(phenylsulfonyl)-1,2,5-oxadiazole 2-oxide]",3760 ± 1600 nM,2,
89 ± 14 nM,1070 ± 154 nM,567 ± 86 nM,187 to 189 °C,"CC(CNC(=O)c1ccccc1Nc1nc(Nc2ccc(CN3CCOCC3)cc2)ncc1Cl)Oc1no[n+]([O-])c1S(=O)(=O)c1ccccc1 (stereo not drawn) [Compound 9c, 4-((1-(2-((5-Chloro-2-((4-(morpholinomethyl)phenyl)amino)pyrimidin-4-yl)amino)benzamido)propan-2-yl)oxy)-3-(phenylsulfonyl)-1,2,5-oxadiazole 2-oxide]",2420 ± 546 nM,4,
> 1000 nM,2410 ± 587 nM,1720 ± 295 nM,130 to 132 °C,"O=C(c1ccccc1Nc1nc(Nc2ccc(CN3CCOCC3)cc2)ncc1Cl)N1CCC(Oc2no[n+]([O-])c2S(=O)(=O)c2ccccc2)CC1 [Compound 9e, 4-((1-(2-((5-Chloro-2-((4-(morpholinomethyl)phenyl)amino)pyrimidin-4-yl)amino)benzoyl)piperidin-4-yl)oxy)-3-(phenylsulfonyl)-1,2,5-oxadiazole 2-oxide]",763 ± 100 nM,0.4,
338 ± 38 nM,138 ± 31 nM,164 ± 51 nM,144 to 146 °C,"O=C(NCCCOc1no[n+]([O-])c1S(=O)(=O)c1ccccc1)c1ccccc1Nc1nc(Nc2ccc(CN3CCOCC3)cc2)ncc1Cl [Compound 9b, 4-(3-(2-((5-Chloro-2-((4-(morpholinomethyl)phenyl)amino)pyrimidin-4-yl)amino)benzamido)propoxy)-3-(phenylsulfonyl)-1,2,5-oxadiazole 2-oxide]",2080 ± 366 nM,13,
66 ± 14 nM,2740 ± 206 nM,1090 ± 137 nM,169 to 171 °C,"CN(CCOc1no[n+]([O-])c1S(=O)(=O)c1ccccc1)C(=O)c1ccccc1Nc1nc(Nc2ccc(CN3CCOCC3)cc2)ncc1Cl [Compound 9d, 4-(2-(2-((5-Chloro-2-((4-(morpholinomethyl)phenyl)amino)pyrimidin-4-yl)amino)-N-methylbenzamido)ethoxy)-3-(phenylsulfonyl)-1,2,5-oxadiazole 2-oxide]",4550 ± 533 nM,4,
